{
  "source": "patent US20250099475A1",
  "about": "“METHODS OF TREATING HYPERTENSION BY PERIODIC SUPPRESSION OF ALDOSTERONE SYNTHASE” (Mineralys Therapeutics, Inc., priority 2022, published 2025)",
  "key": {"[1]": {"test_system": "hypertensive subjects", "assay": "Example 4 dose-ranging study: 24-hour ambulatory blood pressure monitoring (ABPM)", "type": "in vivo, human", "details": "for Change in ABPM (24 h) BPdias, Mean (sem) / Change in ABPM (24 h) BPmcan, Mean (sem) / Change in ABPM (24 h) BPsys, Mean (sem) / Change in ABPM (night) BPsys, Mean (sem) / Subjects with nighttime Dip 10-20% / Subjects with nighttime Dip <10% / Subjects with nighttime Dip >20%: Week 8, Full Analysis Set"}, "[2]": {"target": "T1, CYP 11β2 beta hydroxylase (Homo sapiens, UniProt P19099)", "T1 construct": "estimated based on PKPD modeling of data from the SAD study; from tissue; host or cells: adrenal cortex of human study subjects (in vivo)", "T1 sequence (P19099 25-503)": "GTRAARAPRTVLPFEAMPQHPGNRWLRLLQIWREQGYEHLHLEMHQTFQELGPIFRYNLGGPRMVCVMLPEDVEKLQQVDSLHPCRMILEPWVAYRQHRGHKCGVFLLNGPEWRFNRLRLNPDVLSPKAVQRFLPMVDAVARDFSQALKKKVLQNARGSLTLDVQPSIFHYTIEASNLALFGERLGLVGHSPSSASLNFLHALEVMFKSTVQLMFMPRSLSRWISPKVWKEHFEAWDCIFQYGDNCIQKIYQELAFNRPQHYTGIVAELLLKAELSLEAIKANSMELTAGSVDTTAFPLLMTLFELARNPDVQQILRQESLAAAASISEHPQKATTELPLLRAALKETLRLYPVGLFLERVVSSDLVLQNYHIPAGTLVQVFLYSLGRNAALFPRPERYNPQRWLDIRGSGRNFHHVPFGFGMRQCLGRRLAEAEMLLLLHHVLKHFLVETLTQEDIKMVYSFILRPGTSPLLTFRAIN", "assay": "PKPD modeling of SAD study data: time above IC50", "type": "in vivo", "details": "aldosterone", "protocol": "A randomized, double-blinded, placebo-controlled study was conducted in which 116 patients were randomized and 87 received Compound A HBr.\nA single ascending dose (SAD) study was conducted with the following dosing amounts tested: • (a) 5 mg • (b) 10 mg • (c) 20 mg • (d) 50 mg • (e) 100 mg • (f) 200 mg • (g) 400 mg • (h) 800 mg.\nThe IC50 of inhibition of CYP […] by Compound A HBr and the time above IC50 for each dosing amount were estimated based on PKPD modeling of data from the SAD study."}, "[3]": {"test_system": "human adrenocortical NCI-H295R cell culture", "assay": "Inhibitory effects on adrenal steroidogenesis", "type": "cell-based", "details": "3 days of incubation", "protocol": "Multiple concentrations of Compound A and aminoglutethimide (positive control) were evaluated in a human adrenocortical NCI-H295R cell culture. The effect of Compound A on adrenal steroidogenesis was determined by measurement of 12 steroid hormones in the culture medium after 3 days of incubation. The following steroids were measured: pregnenolone, 11-deoxycortisol, 17α-hydroxypregnenolone, 11-DOC, dehydroepiandrosterone, corticosterone, progesterone, cortisol, 17α-hydroxyprogesterone, aldosterone, androstenedione, and testosterone."}, "[4]": {"assay": "13-week repeat-dose oral toxicology study in rats", "type": "in vivo, rat", "details": "both sexes, Sprague Dawley, rat, in vivo, oral, 13-week, read-out: no observed adverse effect level (NOAEL)", "protocol": "(§1) The toxicologic profile of Compound A was assessed in several toxicology studies, including 13-week repeat-dose oral studies in Sprague Dawley rats and cynomolgus monkeys, a standard battery of genotoxicity studies, preliminary embryo-fetal development studies in rats and rabbits, and in vitro and in vivo phototoxicity studies. Rats and monkeys were selected for the general toxicology studies on the basis of pharmacology and metabolism data that indicated these animals would have metabolism similar to that of humans. Studies were performed in accordance with GLP regulations.\n(§2) Doses in the 13-week toxicology studies were 0, 50, 150, 450 (female), and 600 (male) mg/kg/d in Sprague Dawley rats. In cynomolgus monkeys (females and males), the doses were 0, 10, 30, and 100 mg/kg/d. Hematoxylin-and-eosin-stained sections (nominal thickness of approximately 5 μm) were prepared from the formalin-fixed paraffin-embedded organs/tissues of all animals in the toxicology studies."}, "[5]": {"test_system": "Sprague Dawley rats", "assay": "13-week repeat-dose oral toxicology study in rats", "type": "in vivo, rat", "details": "13-week daily dosing, doses ≥150 mg/kg/d", "protocol": "as §1, §2"}, "[6]": {"target": "T2, human CYP 11B1 (hCYP11B1) (Homo sapiens, UniProt P15538)", "T2 construct": "expressed in transfected cells; host or cells: V79 cells (mitochondrial fraction)", "T2 sequence (P15538 25-503)": "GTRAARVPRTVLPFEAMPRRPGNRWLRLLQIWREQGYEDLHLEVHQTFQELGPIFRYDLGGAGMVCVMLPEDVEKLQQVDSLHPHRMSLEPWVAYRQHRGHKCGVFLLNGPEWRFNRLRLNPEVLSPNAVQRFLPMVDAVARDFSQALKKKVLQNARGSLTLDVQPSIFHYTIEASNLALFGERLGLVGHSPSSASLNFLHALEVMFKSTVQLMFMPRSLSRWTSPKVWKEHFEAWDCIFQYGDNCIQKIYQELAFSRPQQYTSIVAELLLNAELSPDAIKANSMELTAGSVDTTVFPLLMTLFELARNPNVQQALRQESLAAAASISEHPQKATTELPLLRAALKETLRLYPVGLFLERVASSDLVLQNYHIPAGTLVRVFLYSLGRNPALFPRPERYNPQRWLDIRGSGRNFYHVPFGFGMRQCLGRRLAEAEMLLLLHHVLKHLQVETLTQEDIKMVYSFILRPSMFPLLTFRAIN", "assay": "Assay of hCYP11B1 inhibition (11-deoxycortisol to cortisol)", "type": "biochemical", "details": "mitochondrial fraction of V79 cells stably expressing hCYP11B1; substrate 11-deoxycortisol; read-out: Inhibition constant (Ki) hCYP11B1", "protocol": "The inhibitory effects of Compound A on human CYP 11B1 (hCYP11B1) and human CYP11B2 (hCYP11B2) enzyme activity were evaluated by determining the enzymatic conversion rates of 11-deoxycortisol to cortisol for hCYP11B1 and 11-DOC to aldosterone for hCYP11B2."}},
  "data": [
    {"smiles": "CC(=O)N[C@H]1CC[C@H](NC(=O)CN2CCN(c3nncc(-c4ccc(C)cc4)n3)CC2)CC1", "note": "[Compound A HBr]", "values": [
      {"measurement": "overnight reduction of systolic BP (24 h ambulatory)", "setting": "[1]; 100 mg QD cohort", "value": "−11.5+/−2.9 mmHg"},
      {"measurement": "Change in ABPM (24 h) BPdias, Mean (sem)", "setting": "[1]; 12.5 mg BID", "value": "−5.4 (2.2) mmHg"},
      {"measurement": "Change in ABPM (24 h) BPmcan, Mean (sem)", "setting": "[1]; 12.5 mg BID", "value": "−5.5 (2.7) mmHg"},
      {"measurement": "Change in ABPM (24 h) BPsys, Mean (sem)", "setting": "[1]; 12.5 mg BID", "value": "−5.7 (3.2) mmHg"},
      {"measurement": "Change in ABPM (night) BPsys, Mean (sem)", "setting": "[1]; 12.5 mg BID", "value": "−7.5 (4.0) mmHg"},
      {"measurement": "Subjects with nighttime Dip 10-20%", "setting": "[1]; 12.5 mg BID", "value": 31, "unit": "%"},
      {"measurement": "Subjects with nighttime Dip <10%", "setting": "[1]; 12.5 mg BID", "value": 69, "unit": "%"},
      {"measurement": "Subjects with nighttime Dip >20%", "setting": "[1]; 12.5 mg BID", "value": 0, "unit": "%"},
      {"measurement": "Change in ABPM (24 h) BPdias, Mean (sem)", "setting": "[1]; 12.5 mg QD", "value": "−2.3 (1.7) mmHg"},
      {"measurement": "Change in ABPM (24 h) BPmcan, Mean (sem)", "setting": "[1]; 12.5 mg QD", "value": "−3.7 (2.6) mmHg"},
      {"measurement": "Change in ABPM (24 h) BPsys, Mean (sem)", "setting": "[1]; 12.5 mg QD", "value": "−5.2 (3.4) mmHg"},
      {"measurement": "Change in ABPM (night) BPsys, Mean (sem)", "setting": "[1]; 12.5 mg QD", "value": "−5.4 (4.2) mmHg"},
      {"measurement": "Subjects with nighttime Dip 10-20%", "setting": "[1]; 12.5 mg QD", "value": 36, "unit": "%"},
      {"measurement": "Subjects with nighttime Dip <10%", "setting": "[1]; 12.5 mg QD", "value": 64, "unit": "%"},
      {"measurement": "Subjects with nighttime Dip >20%", "setting": "[1]; 12.5 mg QD", "value": 0, "unit": "%"},
      {"measurement": "Change in ABPM (24 h) BPdias, Mean (sem)", "setting": "[1]; 25 mg BID", "value": "−6.1 (1.8) mmHg"},
      {"measurement": "Change in ABPM (24 h) BPmcan, Mean (sem)", "setting": "[1]; 25 mg BID", "value": "−7.4 (2.3) mmHg"},
      {"measurement": "Change in ABPM (24 h) BPsys, Mean (sem)", "setting": "[1]; 25 mg BID", "value": "−8.7 (2.9) mmHg"},
      {"measurement": "Change in ABPM (night) BPsys, Mean (sem)", "setting": "[1]; 25 mg BID", "value": "−6.0 (2.8) mmHg"},
      {"measurement": "Subjects with nighttime Dip 10-20%", "setting": "[1]; 25 mg BID", "value": 17, "unit": "%"},
      {"measurement": "Subjects with nighttime Dip <10%", "setting": "[1]; 25 mg BID", "value": 79, "unit": "%"},
      {"measurement": "Subjects with nighttime Dip >20%", "setting": "[1]; 25 mg BID", "value": 4, "unit": "%"},
      {"measurement": "Change in ABPM (24 h) BPdias, Mean (sem)", "setting": "[1]; 50 mg QD", "value": "−3.0 (1.6) mmHg"},
      {"measurement": "Change in ABPM (24 h) BPmcan, Mean (sem)", "setting": "[1]; 50 mg QD", "value": "−2.4 (2.2) mmHg"},
      {"measurement": "Change in ABPM (24 h) BPsys, Mean (sem)", "setting": "[1]; 50 mg QD", "value": "−1.8 (3.0) mmHg"},
      {"measurement": "Change in ABPM (night) BPsys, Mean (sem)", "setting": "[1]; 50 mg QD", "value": "2.4 (4.2) mmHg"},
      {"measurement": "Subjects with nighttime Dip 10-20%", "setting": "[1]; 50 mg QD", "value": 21, "unit": "%"},
      {"measurement": "Subjects with nighttime Dip <10%", "setting": "[1]; 50 mg QD", "value": 78, "unit": "%"},
      {"measurement": "Subjects with nighttime Dip >20%", "setting": "[1]; 50 mg QD", "value": 0, "unit": "%"},
      {"measurement": "Change in ABPM (24 h) BPdias, Mean (sem)", "setting": "[1]; 100 mg QD", "value": "−5.9 (1.5) mmHg"},
      {"measurement": "Change in ABPM (24 h) BPmcan, Mean (sem)", "setting": "[1]; 100 mg QD", "value": "−7.4 (1.8) mmHg"},
      {"measurement": "Change in ABPM (24 h) BPsys, Mean (sem)", "setting": "[1]; 100 mg QD", "value": "−8.9 (2.2) mmHg"},
      {"measurement": "Change in ABPM (night) BPsys, Mean (sem)", "setting": "[1]; 100 mg QD", "value": "−11.5 (2.5) mmHg"},
      {"measurement": "Subjects with nighttime Dip 10-20%", "setting": "[1]; 100 mg QD", "value": 46, "unit": "%"},
      {"measurement": "Subjects with nighttime Dip <10%", "setting": "[1]; 100 mg QD", "value": 46, "unit": "%"},
      {"measurement": "Subjects with nighttime Dip >20%", "setting": "[1]; 100 mg QD", "value": 8, "unit": "%"},
      {"measurement": "% 24 hr above IC50", "setting": "[2]; 12.5 mg BID", "value": 25, "unit": "%"},
      {"measurement": "% 24 hr above IC50", "setting": "[2]; 12.5 mg QD", "value": 8, "unit": "%"},
      {"measurement": "% 24 hr above IC50", "setting": "[2]; 25 mg BID", "value": 52, "unit": "%"},
      {"measurement": "% 24 hr above IC50", "setting": "[2]; 50 mg QD", "value": 38, "unit": "%"},
      {"measurement": "% 24 hr above IC50", "setting": "[2]; 100 mg QD", "value": 56, "unit": "%"}
    ]},
    {"smiles": "CC(=O)N[C@H]1CC[C@H](NC(=O)CN2CCN(c3nncc(-c4ccc(C)cc4)n3)CC2)CC1", "note": "[Compound A]", "values": [
      {"measurement": "reduction in aldosterone secretion", "setting": "[3]; concentrations ≥0.11 μmol/L", "value": "> 50", "unit": "%"},
      {"measurement": "reduction in corticosterone", "setting": "[3]; concentrations ≥1 μmol/L", "value": "> 50", "unit": "%"},
      {"measurement": "reductions in pregnenolone, progesterone, 17α-hydroxyprogesterone, 11-DOC, corticosterone, and cortisol", "setting": "[3]; top concentration 3 μmol/L", "value": "< 50", "unit": "%"},
      {"measurement": "NOAEL at 13 weeks", "setting": "[4]", "value": 50, "unit": "mg/kg/day"},
      {"measurement": "histopathological findings", "setting": "[5]", "value": "vacuolation of zona fasciculata cells and hypertrophy of zona glomerulosa cells in the adrenal glands"},
      {"measurement": "Ki", "setting": "[6]", "value": 475, "unit": "nM"}
    ]}
  ]
}
